# Experimental data: article PMC12002330 (Proceedings of the National Academy of Sciences of the …, 2025)
# Like-named read-outs stand apart in the source and are kept apart here.
# Legend:
# [1] = biological target: recombinant DENV-2 NS4B (mature, full-length) with an N-terminal hexahistidine tag (DENV-2) (UniProt P14340); test: BLI
# [2] = biological target: recombinant DENV-2 NS4B (mature, full-length) with an N-terminal hexahistidine tag (DENV-2) (UniProt P14340); test: ITC
# [3] = biological target: recombinant WT ZIKV NS4B (ZIKV) (UniProt Q32ZE1); test: ITC
# [4] = test system: DENV-2 NGC-Nluc; test: Antiviral assay using NGC-Nluc in Huh7 cells; format: cell-based
# [5] = test system: DENV-2 NGC strain (WT); test: microbe, parasite or virus in culture; format: cell-based
# [6] = biological target: NS4B peptide 121-171 (cytosolic loop) (Dengue virus type 2, UniProt P29990); format: binding; settings: aa 121 to 171
# NS4B peptide 121-171 (cytosolic loop), sequence (P29990 2364-2414): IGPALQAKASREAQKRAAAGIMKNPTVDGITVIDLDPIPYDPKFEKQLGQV
# [7] = biological target: WT DENV-2 NS4B (Dengue virus type 2, UniProt P29990); test: ITC binding of inhibitor to NS4B
# WT DENV-2 NS4B, sequence (P29990 2244-2491): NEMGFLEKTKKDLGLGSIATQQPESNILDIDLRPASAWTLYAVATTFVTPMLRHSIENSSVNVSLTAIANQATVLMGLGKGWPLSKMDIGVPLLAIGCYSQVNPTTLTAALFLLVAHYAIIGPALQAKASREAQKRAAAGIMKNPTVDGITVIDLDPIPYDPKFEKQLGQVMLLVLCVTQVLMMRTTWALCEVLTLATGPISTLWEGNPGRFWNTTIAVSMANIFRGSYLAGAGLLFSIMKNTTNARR
# [8] = test system: four serotypes of DENV; settings: cited from earlier work
# [9] = biological target: NS4B/NS3 interaction (WT NS4B) (Dengue virus type 2, UniProt P14340); format: cell-based
# NS4B/NS3 interaction (WT NS4B), sequence (P14340 2244-2491): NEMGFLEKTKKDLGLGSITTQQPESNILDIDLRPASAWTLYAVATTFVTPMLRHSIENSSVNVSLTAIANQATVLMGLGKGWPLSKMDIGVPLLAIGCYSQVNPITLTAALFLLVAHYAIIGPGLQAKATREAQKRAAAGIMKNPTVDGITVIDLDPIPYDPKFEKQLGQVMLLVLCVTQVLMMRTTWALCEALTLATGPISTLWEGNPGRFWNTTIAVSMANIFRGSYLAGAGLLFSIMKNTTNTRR
# [10] = biological target: DENV-2 NS4B/NS3 interaction (Dengue virus type 2, UniProt P29990); format: binding
# DENV-2 NS4B/NS3 interaction, sequence (P29990 2244-2491): as the sequence (P29990 2244-2491) above
# recombinant DENV-2 full-length NS3, sequence (P14340 1476-2093 limits assumed): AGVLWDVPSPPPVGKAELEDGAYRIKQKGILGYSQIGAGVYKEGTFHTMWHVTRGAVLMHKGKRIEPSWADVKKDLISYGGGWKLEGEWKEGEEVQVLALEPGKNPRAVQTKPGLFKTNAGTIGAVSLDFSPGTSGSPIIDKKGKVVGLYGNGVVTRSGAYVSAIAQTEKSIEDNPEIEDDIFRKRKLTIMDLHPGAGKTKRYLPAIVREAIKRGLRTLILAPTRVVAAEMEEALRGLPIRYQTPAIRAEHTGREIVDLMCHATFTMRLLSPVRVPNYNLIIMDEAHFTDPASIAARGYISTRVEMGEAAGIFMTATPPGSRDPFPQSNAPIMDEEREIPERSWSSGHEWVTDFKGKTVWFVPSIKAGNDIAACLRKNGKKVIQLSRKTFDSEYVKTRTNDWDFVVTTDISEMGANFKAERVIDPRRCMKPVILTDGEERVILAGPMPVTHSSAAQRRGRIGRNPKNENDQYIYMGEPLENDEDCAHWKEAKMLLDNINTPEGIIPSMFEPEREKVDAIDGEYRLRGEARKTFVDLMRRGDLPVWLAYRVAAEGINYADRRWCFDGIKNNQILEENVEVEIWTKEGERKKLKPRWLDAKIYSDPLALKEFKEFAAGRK
# recombinant DENV-2 NS4B (mature, full-length) with an N-terminal hexahistidine tag (DENV-2), sequence (P14340 2244-2491 limits assumed): as the sequence (P14340 2244-2491) above
compound,measurement,setting,value
recombinant DENV-2 full-length NS3 (from UniProt P14340 1476-2093) (enzyme),Kd,[1],13 µM
same,"fold increase of koff, 200 nM against 3.1 nM NITD-688",[1],2.6 fold
same,KD with NITD-688 (molar ratio to NS4B 1:2),[2],26.2 µM
same,KD with NITD-688 (molar ratio to NS4B 4:1),[2],594 µM
same,Kd,[2],12.3 µM
NS3 used in the ITC of ZIKV NS4B/NS3 interactions (enzyme),Kd,[3],3.4 µM
C#C[C@@]1(O)[C@H](O)[C@@H](CO)O[C@H]1n1ccc2c(N)ncnc21 [NITD-008],EC50,[4]; Huh7 cells,380 nM
COc1cc(N[C@H](C(=O)c2c[nH]c3ccc(OC(F)(F)F)cc23)c2ccc(Cl)cc2OC)cc(S(C)(=O)=O)c1 [JNJ-1802],EC50,"[4]; Dengue virus, DENV2, Huh-7, 48 h",0.031 nM
same,higher potency in cellular assays than NITD-688,[5],~ 100 fold
same,EC50,"[5]; Dengue virus, DENV2, A549, 48 h, read-out: EC50 (averaged)",0.019 nM
same,binding to cytosolic loop of NS4B by ITC,[6],not the cytosolic loop
same,higher binding affinity to NS4B compared to NITD-688,[7],4.2 fold
same,efficacy against four serotypes of DENV,[8],picomolar to low nanomolar efficacy
same,decrease of NS3 co-IPed with NS4B,[9]; 10 nM JNJ-1802 added at 4 h posttransfection,80%
same,decrease of NS3 co-IPed with NS4B,[9]; 10 nM JNJ-1802 added at 24 h posttransfection,8%
same,more inhibition of NS4B/NS3 interactions than NITD-688,[10]; ITC assay,approximately 4 fold
same,inhibition of NS4B/NS3 binding,"[10]; ITC, JNJ-1802 preincubated with NS4B",effectively inhibited
